Results as given in ChEMBL document CHEMBL1201862, “PubChem BioAssay data set” (2004).
Active and inactive are the calls of the source.

How the values were obtained:
[1] = system: HEK293; experiment: cells; assay type: functional, cell-based; conditions: Homo sapiens
[2] = target: T1, Nuclear receptor subfamily 0 group B member 1 (Homo sapiens, UniProt P51843); experiment: Luminescence-based cell-based high throughput dose response assay for inhibitors of the orphan nuclear receptor subfamily 0, group B, member 1 (DAX1; NR0B1). [Related pubchem assays (depositor defined):AID504766, AID504790]; assay type: functional
T1 sequence (P51843 whole entry): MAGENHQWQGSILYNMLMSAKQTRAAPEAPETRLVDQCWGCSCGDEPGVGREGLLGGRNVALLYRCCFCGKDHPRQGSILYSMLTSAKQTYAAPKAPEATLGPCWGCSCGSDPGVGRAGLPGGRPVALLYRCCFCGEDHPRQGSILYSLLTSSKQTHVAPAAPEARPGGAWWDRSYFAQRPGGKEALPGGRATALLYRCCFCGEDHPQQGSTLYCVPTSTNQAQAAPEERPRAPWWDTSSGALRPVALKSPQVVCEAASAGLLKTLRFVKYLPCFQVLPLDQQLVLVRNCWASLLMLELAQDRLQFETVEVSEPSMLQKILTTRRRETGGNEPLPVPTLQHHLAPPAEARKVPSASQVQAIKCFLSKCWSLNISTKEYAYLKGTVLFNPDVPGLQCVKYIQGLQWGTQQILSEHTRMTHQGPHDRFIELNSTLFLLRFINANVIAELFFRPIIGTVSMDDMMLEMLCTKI

[3] = system: HEK293; experiment: cells; assay type: functional, cell-based; conditions: Homo sapiens; remark: listed apart in the source
[4] = system: HEK293; experiment: NOD1 signaling inhibitors, primary screen, cell-based, luminescence, uHTS (AID 1578); assay type: functional; conditions: Homo sapiens
[5] = inhibitors of intracellular T. cruzi replication, confirmation, NIH3T3 host cells, beta-gal luminescence (AID 2044); assay type: functional, cell-based;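 also: intracellular parasites grown in NIH/3T3 mouse fibroblasts as host cells; luminescent beta-galactosidase reporter signal from transgenic T. cruzi replicating inside host cells; inhibitors lower the luminescence signal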
[6] = system: HEK293; experiment: cells; assay type: functional, cell-based; conditions: Homo sapiens; remark: listed apart in the source
[7] = target: T2, COUP transcription factor 2 (Homo sapiens, UniProt P24468); experiment: Luminescence-based cell-based high throughput dose response assay to identify inhibitors of COUP-TFII (NR2F2).; assay type: functional;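 also: HEK293 cells transiently cotransfected with COUP-TFII expression vector and reporter; luciferase reporter luminescence driven by COUP-TFII from the pX2-168 reporter plasmid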
T2 sequence (P24468 whole entry): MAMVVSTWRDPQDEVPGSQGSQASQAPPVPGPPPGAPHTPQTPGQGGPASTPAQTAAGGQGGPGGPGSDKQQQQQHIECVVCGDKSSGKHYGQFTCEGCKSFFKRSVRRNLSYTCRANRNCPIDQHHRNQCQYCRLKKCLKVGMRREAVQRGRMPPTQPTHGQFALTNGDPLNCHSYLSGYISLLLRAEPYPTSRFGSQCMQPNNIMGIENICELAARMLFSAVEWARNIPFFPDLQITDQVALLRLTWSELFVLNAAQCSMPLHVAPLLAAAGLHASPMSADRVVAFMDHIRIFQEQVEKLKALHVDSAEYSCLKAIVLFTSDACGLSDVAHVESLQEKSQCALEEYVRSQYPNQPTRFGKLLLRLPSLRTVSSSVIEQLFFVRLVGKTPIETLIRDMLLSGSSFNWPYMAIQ

[8] = cytotoxicity toward NIH3T3 fibroblasts, dose response, counter-screen, cell-based, ATP luminescence, mouse fibroblasts (AID 2010); assay type: functional;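 also: cells exposed to compound for about 90 hours before reading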
[9] = target: T3, Short transient receptor potential channel 4 (Mus musculus, UniProt Q9QUQ5); experiment: mouse TRPC4 channel inhibitors, dose response, cell-based, HEK293 TRPC4/mu-opioid, Fluo-4 calcium (AID 434942); assay type: functional;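 also: potency of inhibitors blocking the TRPC4 calcium response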
T3 sequence (Q9QUQ5 whole entry): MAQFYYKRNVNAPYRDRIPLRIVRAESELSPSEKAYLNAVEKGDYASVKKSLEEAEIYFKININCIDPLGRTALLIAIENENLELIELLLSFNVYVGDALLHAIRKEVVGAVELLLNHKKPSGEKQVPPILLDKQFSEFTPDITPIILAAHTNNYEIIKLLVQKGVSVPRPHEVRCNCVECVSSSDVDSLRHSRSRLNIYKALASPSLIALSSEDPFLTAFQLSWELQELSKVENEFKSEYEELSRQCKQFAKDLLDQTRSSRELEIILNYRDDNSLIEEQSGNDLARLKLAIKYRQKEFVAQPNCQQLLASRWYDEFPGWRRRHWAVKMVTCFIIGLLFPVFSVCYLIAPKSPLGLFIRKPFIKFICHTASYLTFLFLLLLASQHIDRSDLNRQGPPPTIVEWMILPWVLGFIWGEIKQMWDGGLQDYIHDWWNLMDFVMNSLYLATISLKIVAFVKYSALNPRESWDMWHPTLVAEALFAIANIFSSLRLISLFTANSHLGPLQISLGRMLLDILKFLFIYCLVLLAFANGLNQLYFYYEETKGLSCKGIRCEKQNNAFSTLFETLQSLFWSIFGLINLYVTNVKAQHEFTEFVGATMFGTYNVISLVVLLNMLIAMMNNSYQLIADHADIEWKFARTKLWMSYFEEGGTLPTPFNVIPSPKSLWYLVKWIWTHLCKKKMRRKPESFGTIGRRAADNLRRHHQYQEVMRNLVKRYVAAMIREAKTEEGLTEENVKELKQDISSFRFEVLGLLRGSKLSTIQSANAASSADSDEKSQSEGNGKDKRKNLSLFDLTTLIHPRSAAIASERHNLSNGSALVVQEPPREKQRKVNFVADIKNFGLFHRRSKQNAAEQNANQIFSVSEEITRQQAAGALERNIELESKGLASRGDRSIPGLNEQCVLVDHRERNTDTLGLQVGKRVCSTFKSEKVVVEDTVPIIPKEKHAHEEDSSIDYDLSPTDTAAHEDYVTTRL

[10] = system: HEK293; experiment: NOD2 signaling inhibitors in MDP-stimulated cells, cell-based, uHTS, luminescence (AID 2001); assay type: functional; conditions: Homo sapiens
[11] = system: HeLa; experiment: HeLa cell cytotoxicity, dose response, cytotoxicity control for MITF activator project, CellTiter-Glo luminescence, cherry-pick samples (AID 540259); assay type: functional, cell-based; conditions: Homo sapiens
[12] = target: Cytochrome P450 2D6 (Homo sapiens, UniProt P10635);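 also: CYP2D6 member of a cytochrome P450 panel assay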
[13] = system: Vero; experiment: cells; assay type: functional, cell-based; conditions: Chlorocebus sabaeus
[14] = system: Vero; experiment: cells; assay type: functional; conditions: Chlorocebus sabaeus
[15] = target: T4, Heat shock factor protein 1 (Mus musculus, UniProt P38532); experiment: HSF1 potentiators in luciferase reporter cells, confirmation, cell-based, NIH3T3, luminescence, dose retest (AID 435004); assay type: functional;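 also: stress induced by proteasome inhibitor MG132 added 30 min after compound; luciferase reporter driven by HSF1 response element in NIH3T3 cells; actives raise luminescence as potentiators of the MG132 stress response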
T4 sequence (P38532 whole entry): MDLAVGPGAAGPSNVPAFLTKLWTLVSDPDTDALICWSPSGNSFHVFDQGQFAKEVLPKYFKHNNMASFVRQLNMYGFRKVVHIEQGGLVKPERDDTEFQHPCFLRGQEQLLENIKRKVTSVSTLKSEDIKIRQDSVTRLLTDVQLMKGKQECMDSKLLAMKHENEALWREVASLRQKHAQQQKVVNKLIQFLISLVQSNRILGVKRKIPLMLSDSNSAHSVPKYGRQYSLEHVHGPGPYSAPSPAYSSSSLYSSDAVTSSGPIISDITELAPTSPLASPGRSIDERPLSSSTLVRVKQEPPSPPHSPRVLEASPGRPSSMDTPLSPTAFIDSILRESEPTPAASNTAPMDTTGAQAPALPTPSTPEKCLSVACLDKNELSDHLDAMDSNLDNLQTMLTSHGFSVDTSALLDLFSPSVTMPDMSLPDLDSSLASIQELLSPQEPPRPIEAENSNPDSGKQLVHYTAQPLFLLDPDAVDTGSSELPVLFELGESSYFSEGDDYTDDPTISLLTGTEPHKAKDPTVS

[16] = Luminescence Cell-Based Dose Retest to Confirm Inhibitors of Cancer Stem Cells. [Related pubchem assays (depositor defined):AID2717, AID2721]; assay type: functional; conditions: Homo sapiens
[17] = target: Cytochrome P450 2C9 (Homo sapiens, UniProt P11712)
[18] = target: T5, Cytochrome P450 1A2 (Homo sapiens, UniProt P05177);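 also: PubChem cytochrome P450 panel assay, CYP1A2 panel member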
T5 sequence (P05177 whole entry): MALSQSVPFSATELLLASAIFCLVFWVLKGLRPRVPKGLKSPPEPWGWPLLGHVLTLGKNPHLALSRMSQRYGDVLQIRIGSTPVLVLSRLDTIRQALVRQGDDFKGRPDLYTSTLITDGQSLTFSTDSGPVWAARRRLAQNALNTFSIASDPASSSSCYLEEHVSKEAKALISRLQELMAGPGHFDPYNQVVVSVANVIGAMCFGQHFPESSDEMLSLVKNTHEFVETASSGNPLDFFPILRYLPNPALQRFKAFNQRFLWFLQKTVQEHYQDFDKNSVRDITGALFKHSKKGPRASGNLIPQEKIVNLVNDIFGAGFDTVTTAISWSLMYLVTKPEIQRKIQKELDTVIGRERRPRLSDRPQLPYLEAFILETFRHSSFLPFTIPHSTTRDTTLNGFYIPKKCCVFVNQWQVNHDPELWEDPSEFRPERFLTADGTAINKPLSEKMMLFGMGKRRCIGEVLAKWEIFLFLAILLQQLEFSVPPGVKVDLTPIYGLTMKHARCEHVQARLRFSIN

[19] = target: Tumor necrosis factor (Homo sapiens, UniProt P01375); experiment: TNFa-triggered NF-kB activation inhibitors, SAR follow-up, cell-based, revised (AID 2337); assay type: functional
[20] = system: HEK293; experiment: cells; conditions: Homo sapiens
[21] = target: T6, Nucleotide-binding oligomerization domain-containing protein 1 (Homo sapiens, UniProt Q9Y239); experiment: NOD1 signaling inhibitors, SAR follow-up, revised (AID 2333); assay type: functional
T6 sequence (Q9Y239 whole entry): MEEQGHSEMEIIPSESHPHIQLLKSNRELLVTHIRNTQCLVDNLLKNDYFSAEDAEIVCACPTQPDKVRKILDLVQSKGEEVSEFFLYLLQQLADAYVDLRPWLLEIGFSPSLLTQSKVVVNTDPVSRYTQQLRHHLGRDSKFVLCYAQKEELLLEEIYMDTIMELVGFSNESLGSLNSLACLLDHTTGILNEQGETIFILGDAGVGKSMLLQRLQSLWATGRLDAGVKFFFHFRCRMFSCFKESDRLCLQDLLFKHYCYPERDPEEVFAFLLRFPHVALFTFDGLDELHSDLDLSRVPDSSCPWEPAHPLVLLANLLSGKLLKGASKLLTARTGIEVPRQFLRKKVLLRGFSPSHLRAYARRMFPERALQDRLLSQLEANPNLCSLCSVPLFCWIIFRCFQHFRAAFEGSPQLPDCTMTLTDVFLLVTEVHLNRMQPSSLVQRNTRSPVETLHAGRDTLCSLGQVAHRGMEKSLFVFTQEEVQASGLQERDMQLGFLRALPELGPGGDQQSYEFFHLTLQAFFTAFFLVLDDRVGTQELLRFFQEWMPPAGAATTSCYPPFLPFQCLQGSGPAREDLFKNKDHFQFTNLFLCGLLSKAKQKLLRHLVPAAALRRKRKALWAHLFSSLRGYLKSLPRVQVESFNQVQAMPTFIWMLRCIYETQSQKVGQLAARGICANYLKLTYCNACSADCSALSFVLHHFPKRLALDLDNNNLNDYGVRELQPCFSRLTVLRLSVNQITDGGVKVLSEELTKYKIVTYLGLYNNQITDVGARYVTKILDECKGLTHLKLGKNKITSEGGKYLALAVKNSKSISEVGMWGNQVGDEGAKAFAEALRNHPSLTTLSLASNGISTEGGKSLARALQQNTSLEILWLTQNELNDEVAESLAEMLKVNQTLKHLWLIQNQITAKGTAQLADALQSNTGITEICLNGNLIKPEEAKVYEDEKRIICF

Cytochrome P450 2D6, sequence (P10635 whole entry): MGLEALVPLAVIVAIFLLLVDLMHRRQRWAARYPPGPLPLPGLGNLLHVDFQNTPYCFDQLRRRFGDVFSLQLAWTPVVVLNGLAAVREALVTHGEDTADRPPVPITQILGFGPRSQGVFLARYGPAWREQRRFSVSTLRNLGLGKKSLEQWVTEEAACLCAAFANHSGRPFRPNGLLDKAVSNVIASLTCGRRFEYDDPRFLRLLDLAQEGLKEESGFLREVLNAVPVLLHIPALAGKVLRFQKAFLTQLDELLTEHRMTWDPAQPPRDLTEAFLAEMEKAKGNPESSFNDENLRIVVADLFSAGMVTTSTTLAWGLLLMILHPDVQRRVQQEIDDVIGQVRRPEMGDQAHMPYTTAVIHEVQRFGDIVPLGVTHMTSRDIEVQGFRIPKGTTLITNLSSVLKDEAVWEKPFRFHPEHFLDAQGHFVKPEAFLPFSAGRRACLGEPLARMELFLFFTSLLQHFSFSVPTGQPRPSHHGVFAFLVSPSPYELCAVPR
Tumor necrosis factor, sequence (P01375 whole entry): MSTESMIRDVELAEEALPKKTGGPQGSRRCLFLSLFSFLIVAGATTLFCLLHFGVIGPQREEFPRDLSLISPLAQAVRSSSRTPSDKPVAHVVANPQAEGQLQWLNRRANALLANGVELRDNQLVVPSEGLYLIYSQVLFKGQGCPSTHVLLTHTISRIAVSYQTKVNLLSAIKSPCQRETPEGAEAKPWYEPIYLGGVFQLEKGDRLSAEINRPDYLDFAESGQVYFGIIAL
Cytochrome P450 2C9, sequence (P11712 whole entry): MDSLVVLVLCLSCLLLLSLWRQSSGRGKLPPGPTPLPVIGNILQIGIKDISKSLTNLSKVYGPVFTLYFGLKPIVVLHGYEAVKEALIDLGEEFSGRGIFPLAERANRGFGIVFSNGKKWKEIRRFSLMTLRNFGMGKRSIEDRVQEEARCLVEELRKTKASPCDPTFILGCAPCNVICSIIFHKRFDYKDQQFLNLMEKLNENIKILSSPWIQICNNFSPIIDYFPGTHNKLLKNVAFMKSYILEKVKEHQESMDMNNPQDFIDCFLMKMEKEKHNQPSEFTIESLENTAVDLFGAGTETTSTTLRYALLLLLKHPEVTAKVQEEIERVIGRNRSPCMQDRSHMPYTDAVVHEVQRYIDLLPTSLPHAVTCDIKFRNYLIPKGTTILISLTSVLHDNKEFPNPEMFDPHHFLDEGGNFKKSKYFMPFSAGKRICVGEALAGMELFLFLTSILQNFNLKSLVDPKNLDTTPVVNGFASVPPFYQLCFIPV

## COc1ccc(C(=O)Nc2nncs2)cc1S(=O)(=O)N1CC(c2ccccc2)CC1=O (stereo not drawn)
[1]
  IC50: > 67.5 µM (inactive)
[2]
  IC50: > 67.5 µM (inactive)

## N=c1c2c(n(Cc3ccc(Cl)cc3)c3c1CCC3)CCC2
[3]
  IC50: > 20 µM (inactive)
[4]
  EC50: 10.2 µM (active)
[5]
  EC50: 0.443 µM (active)
[6]
  IC50: 11.8 µM (active)
[7]
  IC50: 9.25 µM (active)
[8]
  EC50: > 60 µM (not active)
[9]
  EC50: 7.5 µM (active)
[10]
  IC50: 15.4 µM (inactive)

## CCS(=O)(=O)N1CCN(c2nc(-c3ccccc3)cs2)CC1
[11]
  AC50: 61.6 µM (active)

## CC[C@H]1CN(C)[C@H]2Cc3c([nH]c4ccccc34)C(=O)C[C@H]1[C@H]2C(=O)OC
[12]
  AC50: inconclusive

## COc1cc(C(=O)/C=C/c2cccnc2)ccc1O
[13]
  IC50: > 25 µM (active)
[14]
  CC50: 21.2 µM (active)

## COC(=O)C/C=C\[C@@H](C)[C@@H](/C=N\OC[C@@H](O)COCc1ccco1)OC
[12]
  AC50: inconclusive

## CCN(CC)C(=O)OCc1c(-c2ccccc2)ncc2ccccc12
[11]
  AC50: 110 µM (active)

## COc1ccc(/C=C/C(=O)c2ccc(NS(=O)(=O)c3ccc(C)cc3)cc2)cc1O
[15]
  EC50: 32.2 µM (active)
[16]
  AC50: 2.69 µM (active)
[13]
  IC50: > 25 µM (active)
[14]
  CC50: 17.9 µM (active)

## COc1ccc(-n2nnnc2/C=C\Nc2ccccc2C(=O)c2ccccc2)cc1
[17]
  AC50: inconclusive
[12]
  AC50: inconclusive
[18]
  AC50: 22.4 µM (inconclusive)

## CC1CCN(C(=O)c2cc(-c3ccccc3O)on2)CC1
[11]
  AC50: 129 µM (active)

## CCn1cc(/C=C/C(=O)c2ccc(O)cc2)c(C)n1
[1]
  IC50: > 67.5 µM (inactive)
[2]
  IC50: > 67.5 µM (inactive)

## Cc1oc(-c2cccc3ccccc23)nc1CN1CCN(c2ncnc3ccccc23)CC1
[19]
  IC50: > 20 µM (inactive)
[20]
  IC50: > 20 µM (inactive)
[3]
  IC50: 6.63 µM (active)
[4]
  EC50: 7.79 µM (active)
[6]
  IC50: 4.08 µM (active)
[21]
  IC50: > 20 µM (inactive)
[10]
  IC50: 3.28 µM (active)
